Measured values taken from patent US20080269266A1, “NOVEL COMPOUNDS 747” (ASTRAZENECA AB, priority 2007, published 2008).
pIC50: −log10 of the molar value.

Key:
[1] = target: T1, human IR (Homo sapiens, UniProt P06213); assay: Inhibition of Insulin Receptor Phosphorylation in CHOT cells; type: cell-based; conditions: for pIC50: median, CHOT cells stimulated with 30 nM Insulin
T1 construct: expressed in transfected cells; host or cells: CHOT cells (CHO stably transfected with human IR)
Procedure: This immunofluorescence end point cell assay measures the ability of a test compound to reduce the measured levels of IR phosphorylation after insulin stimulation in CHOT cells. CHOT cells are Chinese Hamster Ovary cells (CHO) stable transfected with human IR. CHOT cells are routinely cultured in Hams F12 growth medium supplemented with 200 ug/ml Geneticin, 2.5 mM HEPES, 2 mM L-Glutamine (Invitrogen Code no. 25030-024) and 10% (v/v) foetal bovine serum (FBS) in a 5% CO2 air incubator at 37° C.
To undertake the assay, the CHOT cells are seeded at 5×10^3 cells/well in Hams F12 medium plus 2.5 mM HEPES, 1% foetal calf serum and 2 mM L-Glutamine in 96-well black Packard View plates (PerkinElmer 6005182) and incubated at 37° C. (+5% CO2) in a humidified incubator. The following day, the plates are dosed with 10 μl of 10× concentrated compound (diluted from 10 mM stock in DMSO and Hams F12 without serum) and the plates are returned to a humidified 37° C. (+5% CO2) incubator for 30 minutes. […]
Following the compound treatment, the CHOT cells are stimulated with a final concentration of 30 nM Insulin (Sigma #I-9278) for 10 minutes at 37° C. […] Additionally, in-house antibodies raised against phospho IR were also used at a suitable titre determined for each batch. […]
The Green Fluorescent phospho IR-associated signal in each well was measured using an Acumen Explorer HTS Reader (TTP Labtech Ltd., Cambridge). Phospho IR-associated fluorescence emission can be detected at 530 nm following excitation at 488 nm. The instrument is a laser-scanning fluorescence microplate cytometer, which samples the well at regular intervals and uses threshold algorithms to identify all fluorescent intensities above the solution background without the need to generate and analyse an image. These fluorescent objects can be quantified and provide a measure of the phospho IR levels in cells. Fluorescence dose response data obtained with each compound was exported into a suitable software package (such as Origin) to perform curve fitting analysis. […]

[2] = Protein binding by equilibrium dialysis; type: in vitro ADME; conditions: rat, equilibrium dialysis against 10% plasma, 37° C., read-out: Protein binding, % free
Procedure: Protein binding is determined by equilibrium dialysis. A 20 iM concentration of compound is dialyzed against 10% plasma at a temperature of 37° C. for 18 h. The resulting samples are analyzed using generic HPLC-UV methodology coupled with mass spectral peak identification. The reported K1 value is the first apparent association constant [proteináligand]/([protein][ligand]), all concentrations being measured in moles/liter (J. Med. Chem., 2006, 49(23), 6672-6682).
Protein binding can be measured in a high-throughput screen by equilibrium dialysis combined with liquid chromatography and mass spectrometry (Wan, H. and Rehngren, M., J. Chromatogr. A 2006, 1102, 125-134).

[3] = target: T2, human cytochrome P450 (CYP) 2C19 (Homo sapiens, UniProt P33261); assay: Cytochrome P450 Inhibition Assay 2C19; type: in vitro ADME; conditions: test compound final concentrations 0.1-10 μM; substrate MFC; read-out: Ic50 2C19
T2 construct: made in house; host or cells: yeast cell lines (microsomal fractions)
T2 sequence (P33261 whole entry): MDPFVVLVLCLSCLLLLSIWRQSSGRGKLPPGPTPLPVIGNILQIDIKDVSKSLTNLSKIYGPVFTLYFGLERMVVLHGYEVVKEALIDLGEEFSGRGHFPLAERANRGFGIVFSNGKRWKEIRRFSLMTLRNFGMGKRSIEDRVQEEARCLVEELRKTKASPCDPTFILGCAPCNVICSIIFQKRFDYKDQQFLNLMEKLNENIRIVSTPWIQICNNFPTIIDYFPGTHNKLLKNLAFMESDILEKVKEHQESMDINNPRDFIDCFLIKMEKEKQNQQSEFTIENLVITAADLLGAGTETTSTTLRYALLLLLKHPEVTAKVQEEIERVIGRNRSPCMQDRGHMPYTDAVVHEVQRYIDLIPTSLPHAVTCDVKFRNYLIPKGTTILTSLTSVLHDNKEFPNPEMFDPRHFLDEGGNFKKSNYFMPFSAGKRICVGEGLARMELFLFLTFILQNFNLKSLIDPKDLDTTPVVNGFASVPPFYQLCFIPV
Procedure: The inhibitory potential (IC50) of test compounds against 5 human cytochrome P450 (CYP) isoforms (1A2, 2C9, 2C19, 3A4 and 2D6) was assessed using an automated fluorescent end point in vitro assay modified from Crespi (Crespi and Stresser, 2000). Microsomal subcellular fractions prepared from Yeast cell lines expressing each human CYP isoform were used as an enzyme source in this assay. The activity of the 5 major human CYPs was determined from the biotransformation of a number of coumarin substrates to fluorescent metabolites, in the presence of NADPH. […] Stock solutions of each CYP, with its respective substrate, were prepared in phosphate buffer pH7.4 (see Table 1) and 178 μl was added to the well of a black solid, flat bottom, 300 μl 96 well is microtitre plate (Corning Costar). […] After pre-incubating at 37° C. for 5 min the reactions were started with addition of NADPH (20 μl, concentration shown in Table 1). The final solvent content in each incubation was <=2% (1% from the test compound and a maximum of 1% from the substrate). The appropriate solvent controls and substrate blanks were included in each experiment to assess control activity and identify any inherent fluorescence due to the test compounds. In addition, known inhibitors of each CYP were included as positive controls (see Table 3 for inhibitor concentrations and expected IC50 ranges). The reactions were stopped at defined timepoints (see Table 1) by quenching with 100 μl of solvent (acetonitrile:0.5M Tris buffer 80:20 v/v). The plates were read on a fluorimeter (Spectrafluor Plus) at the appropriate excitation and emission wavelengths (listed in Table 2) and the percent activity, corrected for control, was plotted against the test compound concentration.

T1 sequence (P06213 28-1382): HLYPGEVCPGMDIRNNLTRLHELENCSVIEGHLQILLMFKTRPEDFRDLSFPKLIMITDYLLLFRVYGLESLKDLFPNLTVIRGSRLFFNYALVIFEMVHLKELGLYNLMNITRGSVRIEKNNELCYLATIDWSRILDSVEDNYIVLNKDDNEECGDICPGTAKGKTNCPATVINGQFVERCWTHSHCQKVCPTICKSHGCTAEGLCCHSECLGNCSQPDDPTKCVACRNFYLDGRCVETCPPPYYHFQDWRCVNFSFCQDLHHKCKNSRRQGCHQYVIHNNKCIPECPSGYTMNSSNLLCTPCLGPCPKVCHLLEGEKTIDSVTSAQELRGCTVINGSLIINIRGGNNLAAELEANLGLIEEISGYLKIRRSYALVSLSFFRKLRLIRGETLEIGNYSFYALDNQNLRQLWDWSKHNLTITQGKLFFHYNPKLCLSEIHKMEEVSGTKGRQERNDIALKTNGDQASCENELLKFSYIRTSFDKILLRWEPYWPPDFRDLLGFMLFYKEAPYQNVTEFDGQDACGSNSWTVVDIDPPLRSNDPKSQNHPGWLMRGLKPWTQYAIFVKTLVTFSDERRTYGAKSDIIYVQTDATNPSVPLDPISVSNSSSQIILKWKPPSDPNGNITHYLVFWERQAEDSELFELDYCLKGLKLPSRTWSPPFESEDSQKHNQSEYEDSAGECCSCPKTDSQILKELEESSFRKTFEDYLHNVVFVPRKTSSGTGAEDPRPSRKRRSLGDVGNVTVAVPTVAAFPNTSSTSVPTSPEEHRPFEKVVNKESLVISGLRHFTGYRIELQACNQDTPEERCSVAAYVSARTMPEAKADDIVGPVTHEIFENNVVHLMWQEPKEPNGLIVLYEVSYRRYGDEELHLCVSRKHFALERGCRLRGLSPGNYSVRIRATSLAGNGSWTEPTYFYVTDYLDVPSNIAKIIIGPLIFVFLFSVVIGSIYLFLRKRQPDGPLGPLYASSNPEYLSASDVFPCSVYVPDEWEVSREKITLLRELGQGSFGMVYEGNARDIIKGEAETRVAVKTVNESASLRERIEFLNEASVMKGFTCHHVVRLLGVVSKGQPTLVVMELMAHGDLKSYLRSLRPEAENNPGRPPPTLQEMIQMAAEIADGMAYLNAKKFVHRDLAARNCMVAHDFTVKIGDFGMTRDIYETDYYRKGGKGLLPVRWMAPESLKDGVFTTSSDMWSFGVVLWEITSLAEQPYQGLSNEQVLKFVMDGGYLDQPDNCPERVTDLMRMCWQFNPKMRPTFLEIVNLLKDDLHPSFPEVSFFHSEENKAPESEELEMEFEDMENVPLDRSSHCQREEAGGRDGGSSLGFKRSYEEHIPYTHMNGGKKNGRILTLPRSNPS

| pIC50 [1] | fraction unbound at 18 h, 20 µM [2] | pIC50 [3] | difference in the Inhibition of Insulin Receptor Phosphorylation assay ([1]; Example 1 compared with Comparative Example A) | SMILES |
| --- | --- | --- | --- | --- |
| 8.49 | 0.0205 | < 5.00 |  | CCc1cc(Nc2cc(OC)nc(N3CCC[C@H]3c3cc(-c4ncccn4)no3)n2)n[nH]1 [Comparative Example A, (S)-6-Methoxy-2-{2-[3-(pyrimid-2-yl)isoxazol-5-yl]pyrrolidin-1-yl}-4-(5-ethyl-1H-pyrazol-3-ylamino)pyrimidine] |
| 7.46 | 0.0523 | < 5.00 | ten-fold | COc1cc(Nc2cc(C)n[nH]2)nc(N2CCC[C@H]2c2cc(-c3ncccn3)no2)n1 [Example 1, (S)-6-Methoxy-2-{2-[3-(pyrimid-2-yl)isoxazol-5-yl]pyrrolidin-1-yl}-4-(5-methyl-1H-pyrazol-3-ylamino)pyrimidine] |
